Measured values taken from publication PMC2841792 (Journal of medicinal chemistry, 2010).
“Also recorded” adds a separate entry of the source. Where a name gives a salt, the structure may show the parent alone. Read-outs that look alike come from different tables or passages of the source.

Legend:
BoNT/A LC [1] = biological target: T1, BoNT/A LC (Clostridium botulinum, UniProt P0DPI0); test: biochemical; assay type: biochemical
BoNT/A LC [2] = biological target: T1, BoNT/A LC; test: biochemical
[3] = biological target: anthrax lethal factor (LF) (Bacillus anthracis, UniProt P15917); test: biochemical
Sequence of anthrax lethal factor (LF) (P15917 34-809 limits assumed): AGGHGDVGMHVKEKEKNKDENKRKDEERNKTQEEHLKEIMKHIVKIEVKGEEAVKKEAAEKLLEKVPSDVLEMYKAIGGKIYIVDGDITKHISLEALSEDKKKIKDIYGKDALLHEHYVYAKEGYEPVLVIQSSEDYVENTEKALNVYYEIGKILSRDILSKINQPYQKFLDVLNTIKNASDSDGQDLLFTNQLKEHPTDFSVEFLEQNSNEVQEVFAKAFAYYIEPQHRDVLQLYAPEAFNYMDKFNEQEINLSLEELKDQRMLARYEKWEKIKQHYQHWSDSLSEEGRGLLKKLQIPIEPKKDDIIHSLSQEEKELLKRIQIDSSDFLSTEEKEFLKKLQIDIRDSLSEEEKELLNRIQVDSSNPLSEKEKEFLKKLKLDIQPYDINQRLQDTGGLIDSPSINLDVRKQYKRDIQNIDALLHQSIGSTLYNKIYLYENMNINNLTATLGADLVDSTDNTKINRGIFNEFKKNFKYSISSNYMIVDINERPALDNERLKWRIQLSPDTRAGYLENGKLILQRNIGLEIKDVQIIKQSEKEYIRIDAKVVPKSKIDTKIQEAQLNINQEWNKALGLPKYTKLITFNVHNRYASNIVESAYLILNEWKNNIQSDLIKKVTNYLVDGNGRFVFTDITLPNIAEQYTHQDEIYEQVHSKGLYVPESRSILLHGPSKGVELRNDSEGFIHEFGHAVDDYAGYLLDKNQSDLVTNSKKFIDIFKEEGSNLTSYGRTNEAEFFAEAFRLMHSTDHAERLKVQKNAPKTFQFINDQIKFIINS

neuron = conditions: not told; cited from earlier work
MMP-9 = MMP-9 (Homo sapiens, UniProt P14780); assay type: biochemical
Sequence of MMP-9 (P14780 94-707): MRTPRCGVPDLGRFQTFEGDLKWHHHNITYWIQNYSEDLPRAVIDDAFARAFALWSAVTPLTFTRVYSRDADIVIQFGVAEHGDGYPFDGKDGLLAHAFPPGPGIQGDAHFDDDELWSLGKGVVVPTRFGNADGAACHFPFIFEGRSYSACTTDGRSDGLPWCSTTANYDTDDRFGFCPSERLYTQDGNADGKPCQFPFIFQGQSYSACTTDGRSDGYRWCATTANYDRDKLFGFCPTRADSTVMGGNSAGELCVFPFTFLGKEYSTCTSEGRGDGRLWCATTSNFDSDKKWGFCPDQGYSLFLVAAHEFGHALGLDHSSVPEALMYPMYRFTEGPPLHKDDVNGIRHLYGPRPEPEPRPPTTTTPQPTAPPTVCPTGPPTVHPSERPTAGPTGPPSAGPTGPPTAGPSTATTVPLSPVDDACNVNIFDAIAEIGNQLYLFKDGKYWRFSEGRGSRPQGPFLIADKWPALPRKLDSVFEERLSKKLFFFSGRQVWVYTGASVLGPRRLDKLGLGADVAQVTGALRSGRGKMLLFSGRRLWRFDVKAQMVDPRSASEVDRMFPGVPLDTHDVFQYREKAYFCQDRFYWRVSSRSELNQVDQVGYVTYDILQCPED

human MMP-1 = biological target: T2, human MMP-1 (Homo sapiens, UniProt P03956); assay type: biochemical
T2 sequence (P03956 100-469): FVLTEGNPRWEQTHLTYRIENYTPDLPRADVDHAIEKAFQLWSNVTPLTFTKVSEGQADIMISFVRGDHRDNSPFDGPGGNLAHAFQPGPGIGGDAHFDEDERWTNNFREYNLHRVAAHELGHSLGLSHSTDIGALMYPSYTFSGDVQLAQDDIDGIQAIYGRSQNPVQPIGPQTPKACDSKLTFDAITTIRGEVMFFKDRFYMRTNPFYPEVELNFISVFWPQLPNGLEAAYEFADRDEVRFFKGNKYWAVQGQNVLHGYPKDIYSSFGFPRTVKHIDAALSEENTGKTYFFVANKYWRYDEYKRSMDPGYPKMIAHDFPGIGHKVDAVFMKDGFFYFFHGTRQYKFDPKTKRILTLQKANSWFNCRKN

BoNT/B LC = BoNT/B LC (Clostridium botulinum, UniProt P10844); assay type: biochemical
Sequence of BoNT/B LC (P10844 2-441 limits assumed): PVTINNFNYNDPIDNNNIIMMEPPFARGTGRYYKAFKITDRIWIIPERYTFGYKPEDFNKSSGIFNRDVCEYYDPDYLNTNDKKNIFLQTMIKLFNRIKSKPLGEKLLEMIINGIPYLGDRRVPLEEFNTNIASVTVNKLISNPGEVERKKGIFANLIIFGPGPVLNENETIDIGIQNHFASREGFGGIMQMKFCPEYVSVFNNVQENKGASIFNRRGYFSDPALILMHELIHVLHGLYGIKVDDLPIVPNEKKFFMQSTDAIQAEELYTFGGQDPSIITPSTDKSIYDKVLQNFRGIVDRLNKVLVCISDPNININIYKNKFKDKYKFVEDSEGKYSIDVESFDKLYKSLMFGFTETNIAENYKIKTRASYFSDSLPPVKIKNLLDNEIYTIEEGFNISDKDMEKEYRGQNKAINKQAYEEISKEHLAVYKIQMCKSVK

chick neuronal assay = assay type: cell-based

T1 sequence (P0DPI0 2-448 limits assumed): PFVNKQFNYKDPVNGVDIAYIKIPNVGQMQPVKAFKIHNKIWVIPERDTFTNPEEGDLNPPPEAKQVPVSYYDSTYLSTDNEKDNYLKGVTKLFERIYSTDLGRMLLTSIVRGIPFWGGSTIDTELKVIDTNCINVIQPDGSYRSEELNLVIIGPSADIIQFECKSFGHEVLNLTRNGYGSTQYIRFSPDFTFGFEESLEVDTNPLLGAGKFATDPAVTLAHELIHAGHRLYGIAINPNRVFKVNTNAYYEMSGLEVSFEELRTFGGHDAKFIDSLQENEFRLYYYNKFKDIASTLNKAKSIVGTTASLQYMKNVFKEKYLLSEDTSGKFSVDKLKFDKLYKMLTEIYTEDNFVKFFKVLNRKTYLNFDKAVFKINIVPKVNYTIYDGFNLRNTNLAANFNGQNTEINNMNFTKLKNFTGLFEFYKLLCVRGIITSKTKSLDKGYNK

Row | Compound | IC50 [3] [µM] | IC50 (BoNT/A LC [1]) [µM] | other results
1 | Clc1ccc(Oc2ccc(-c3cc4ccc(C5=NCCN5)cc4[nH]3)cc2)c(Cl)c1 [Compound 29, 2-(4-(2,4-Dichlorophenoxy)phenyl)-6-(4,5-dihydro-1H-imidazol-2-yl)-1H-indole] | – | – | inhibitory activity against BoNT/A LC (in words) (BoNT/A LC [1]): maintain inhibitory activity
2 | c1cc(-c2cc3ccc(C4=NCCN4)cc3s2)ccc1C1=NCCN1 [Compound 46a, 2-(4-(6-(4,5-Dihydro-1H-imidazol-2-yl)benzo[b]thiophen-2-yl)phenyl)-4,5-dihydro-1H-imidazole] | – | – | IC50 (BoNT/A LC [2]): 28 µM
3 | COc1ccc(-c2cc3ccc(C4=NCCN4)cc3[nH]2)cc1 [Compound 43c, 2-(4-Methoxyphenyl)-6-(4,5-dihydro-1H-imidazol-2-yl)-1H-indole] | 61 | 45 | –
4 | Cl.Cl.N=C(N)c1ccc(Oc2ccc(-c3cc4ccc(C(=N)N)cc4[nH]3)cc2)cc1 [Compound 5] | – | – | neuron permeability (neuron): neuron-permeable
5 | N#Cc1ccc2cc(-c3ccc(F)cc3)[nH]c2c1 [Compound 39, 2-(4-Fluorophenyl)-1H-indole-6-carbonitrile] | > 100 | > 100 | –
6 | c1cc(-c2cc3ccc(C4=NCCN4)cc3[nH]2)ccc1C1=NCCN1 [Compound 44a, 6-(4,5-Dihydro-1H-imidazol-2-yl)-2-(4-(4,5-dihydro-1H-imidazol-2-yl)phenyl)-1H-indole] | – | – | inhibitory activity against MMP-9 (MMP-9): no inhibitory activities; inhibitory activity against human MMP-1 (human MMP-1): no inhibitory activities; inhibitory activity against BoNT/B (BoNT/B LC): no inhibitory activities
7 | NC(=O)c1ccc2cc(-c3ccc(F)cn3)sc2c1 [Compound 49, 2-(5-Fluoro-2-pyridyl)-6-benzo[b]thiophenecarboxamide] | > 100 | > 100 | –
8 | N=C(N)c1ccc2cc(-c3ccc(F)cc3)[nH]c2c1 [Compound 40b, 2-(4-Fluorophenyl)-1H-indole-6-carboximidamide] | 48 | > 100 | –
9 | N#Cc1ccc(Oc2ccc(-c3cc4ccc(C(=N)N)cc4[nH]3)cc2)cc1 [Compound 11, 2-(4-(4-Cyanophenoxy)phenyl)-1H-indole-6-carboximidamide hydrochloride salt] | – | – | inhibitory activity against BoNT/A LC (in words) (BoNT/A LC [1]): no activity
10 | COc1ccc(-c2cc3ccc(C(=N)N)cc3[nH]2)cc1 [Compound 43b, 2-(4-Methoxyphenyl)-1H-indole-6-carboximidamide] | > 100 | > 100 | –
11 | COc1ccc(-c2cc3ccc(C(N)=O)cc3[nH]2)cc1 [Compound 43a, 2-(4-Methoxyphenyl)-1H-indole-6-carboxamide] | > 100 | > 100 | –
12 | OC1CN=C(c2ccc(Oc3ccc(-c4cc5ccc(C6=NCC(O)CN6)cc5[nH]4)cc3)cc2)NC1 (stereo not drawn) [Compound 15, 2-(4-(4-(6-(5-Hydroxy-1,4,5,6-tetrahydropyrimidin-2-yl)-1H-indol-2-yl)phenoxy)phenyl)-1,4,5,6-tetrahydropyrimidin-5-ol] | – | – | selectivity for BoNT/A LC versus anthrax LF (BoNT/A LC [1]): over ten-fold
13 | Fc1ccc(-c2cc3ccc(C4=NCCN4)cc3[nH]2)cc1 [Compound 40c, 6-(4,5-Dihydro-1H-imidazol-2-yl)-2-(4-fluorophenyl)-1H-indole] | 40 | > 100 | –
14 | NCCNc1ccc(-c2cc3ccc(C4=NCCN4)cc3s2)nc1 [Compound 50, N^1–(6-(6-(4,5-Dihydro-1H-imidazol-2-yl)benzo[b]thiophen-2-yl)pyridine-3-yl)ethane-1,2-diamine] | > 100 | – | –
15 | CN(C)CC/N=C(\N)c1ccc(Oc2ccc(-c3cc4ccc(/C(N)=N/CCN(C)C)cc4[nH]3)cc2)cc1 [Compound 12] | – | – | dependence of inhibitory activity on Zn concentration (BoNT/A LC [1]): independent of the Zn concentration; fold more potent than the lead structure (compound 5) against BoNT/A LC (BoNT/A LC [1]): 4.4 fold; inhibitory activity against MMP-9 (MMP-9): no inhibitory activities; also recorded: does not inhibit; inhibitory activity against human MMP-1 (human MMP-1): no inhibitory activities; also recorded: does not inhibit; inhibitory activity against BoNT/B (BoNT/B LC): no inhibitory activities; also recorded: does not inhibit; cellular activity in a chick neuronal assay (chick neuronal assay): showed cellular activity
16 | NC(=O)c1ccc2cc(-c3ccc(F)cc3)[nH]c2c1 [Compound 40a, 2-(4-Fluorophenyl)-1H-indole-6-carboxamide] | > 100 | > 100 | –
17 | N#Cc1ccc(Oc2ccc(-c3cc4ccc(C5=NCCN5)cc4[nH]3)cc2)c(Cl)c1 [Compound 24c, 2-(4-(2-Chloro-4-cyanophenoxy)phenyl)-6-(4,5-dihydro-1H-imidazol-2-yl)indole] | – | – | fold less potent than bis-imidazoline 13 against BoNT/A LC (BoNT/A LC [1]): 2.4 fold; inhibitory activity against BoNT/A LC (in words) (BoNT/A LC [1]): maintain inhibitory activity
